Experimental data as given in ChEMBL document CHEMBL1201862, “PubChem BioAssay data set” (2004).
The source made the active and inactive calls.

Assays:
Cytochrome P450 2C9 [1] = target: T1, Cytochrome P450 2C9 (Homo sapiens, UniProt P11712)
Cytochrome P450 1A2 = target: T2, Cytochrome P450 1A2 (Homo sapiens, UniProt P05177);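 further: PubChem cytochrome P450 panel assay, CYP1A2 panel member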
T2 sequence (P05177 whole entry): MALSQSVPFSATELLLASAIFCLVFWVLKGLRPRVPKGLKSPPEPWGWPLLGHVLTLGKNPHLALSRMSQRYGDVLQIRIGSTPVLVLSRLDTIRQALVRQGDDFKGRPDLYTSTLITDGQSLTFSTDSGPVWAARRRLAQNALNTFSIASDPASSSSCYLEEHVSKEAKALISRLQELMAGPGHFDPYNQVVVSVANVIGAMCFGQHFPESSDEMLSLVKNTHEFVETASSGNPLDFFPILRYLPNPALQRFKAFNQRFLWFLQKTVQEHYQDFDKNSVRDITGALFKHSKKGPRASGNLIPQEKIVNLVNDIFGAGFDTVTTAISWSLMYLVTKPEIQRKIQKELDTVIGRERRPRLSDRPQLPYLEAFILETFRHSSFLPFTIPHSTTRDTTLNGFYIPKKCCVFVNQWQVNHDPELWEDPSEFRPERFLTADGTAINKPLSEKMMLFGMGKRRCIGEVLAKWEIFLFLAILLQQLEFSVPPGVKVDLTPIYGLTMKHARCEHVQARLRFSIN

Cytochrome P450 2D6 = Cytochrome P450 2D6 (Homo sapiens, UniProt P10635);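 further: CYP2D6 member of a cytochrome P450 panel assay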
Chain of Cytochrome P450 2D6 (P10635 whole entry): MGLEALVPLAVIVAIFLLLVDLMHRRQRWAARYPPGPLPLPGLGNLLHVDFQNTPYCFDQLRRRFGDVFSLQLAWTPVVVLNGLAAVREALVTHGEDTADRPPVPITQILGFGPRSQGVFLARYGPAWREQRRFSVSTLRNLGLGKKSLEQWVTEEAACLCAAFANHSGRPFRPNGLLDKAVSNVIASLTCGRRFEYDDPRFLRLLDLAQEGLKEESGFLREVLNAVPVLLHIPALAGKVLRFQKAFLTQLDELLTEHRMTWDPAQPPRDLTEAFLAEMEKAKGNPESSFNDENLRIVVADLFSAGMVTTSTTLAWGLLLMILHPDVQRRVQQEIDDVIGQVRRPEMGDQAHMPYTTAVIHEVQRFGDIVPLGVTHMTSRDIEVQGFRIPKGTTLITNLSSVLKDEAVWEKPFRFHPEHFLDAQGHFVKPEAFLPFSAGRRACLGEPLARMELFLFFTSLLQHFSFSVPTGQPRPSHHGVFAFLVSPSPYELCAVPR

Cytochrome P450 3A4 = Cytochrome P450 3A4 (Homo sapiens, UniProt P08684);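 further: CYP3A4 tested as one member of a cytochrome P450 panel screen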
Chain of Cytochrome P450 3A4 (P08684 whole entry): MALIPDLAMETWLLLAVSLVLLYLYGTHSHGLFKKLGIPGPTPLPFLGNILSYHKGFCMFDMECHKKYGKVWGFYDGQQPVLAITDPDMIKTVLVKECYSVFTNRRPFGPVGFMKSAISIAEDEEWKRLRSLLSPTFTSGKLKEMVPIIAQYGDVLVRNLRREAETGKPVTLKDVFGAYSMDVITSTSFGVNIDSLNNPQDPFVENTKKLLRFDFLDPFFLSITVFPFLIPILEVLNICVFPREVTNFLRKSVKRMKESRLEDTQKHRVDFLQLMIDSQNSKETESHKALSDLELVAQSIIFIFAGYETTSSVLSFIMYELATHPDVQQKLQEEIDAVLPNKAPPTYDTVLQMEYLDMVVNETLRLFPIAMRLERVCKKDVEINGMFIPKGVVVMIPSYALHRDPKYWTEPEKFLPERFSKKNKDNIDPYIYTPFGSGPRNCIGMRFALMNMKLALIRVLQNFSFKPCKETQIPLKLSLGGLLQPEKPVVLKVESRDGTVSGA

Aminopeptidase N = target: T3, Aminopeptidase N (Plasmodium falciparum FcB1/Columbia, UniProt O96935); assay: P. falciparum M1AAP inhibitors, biochemical, fluorogenic H-Leu-NHMec substrate, 1536-well (AID 1445); parameters: species or system Plasmodium falciparum 3D7, 3D7
T3 sequence (O96935 whole entry): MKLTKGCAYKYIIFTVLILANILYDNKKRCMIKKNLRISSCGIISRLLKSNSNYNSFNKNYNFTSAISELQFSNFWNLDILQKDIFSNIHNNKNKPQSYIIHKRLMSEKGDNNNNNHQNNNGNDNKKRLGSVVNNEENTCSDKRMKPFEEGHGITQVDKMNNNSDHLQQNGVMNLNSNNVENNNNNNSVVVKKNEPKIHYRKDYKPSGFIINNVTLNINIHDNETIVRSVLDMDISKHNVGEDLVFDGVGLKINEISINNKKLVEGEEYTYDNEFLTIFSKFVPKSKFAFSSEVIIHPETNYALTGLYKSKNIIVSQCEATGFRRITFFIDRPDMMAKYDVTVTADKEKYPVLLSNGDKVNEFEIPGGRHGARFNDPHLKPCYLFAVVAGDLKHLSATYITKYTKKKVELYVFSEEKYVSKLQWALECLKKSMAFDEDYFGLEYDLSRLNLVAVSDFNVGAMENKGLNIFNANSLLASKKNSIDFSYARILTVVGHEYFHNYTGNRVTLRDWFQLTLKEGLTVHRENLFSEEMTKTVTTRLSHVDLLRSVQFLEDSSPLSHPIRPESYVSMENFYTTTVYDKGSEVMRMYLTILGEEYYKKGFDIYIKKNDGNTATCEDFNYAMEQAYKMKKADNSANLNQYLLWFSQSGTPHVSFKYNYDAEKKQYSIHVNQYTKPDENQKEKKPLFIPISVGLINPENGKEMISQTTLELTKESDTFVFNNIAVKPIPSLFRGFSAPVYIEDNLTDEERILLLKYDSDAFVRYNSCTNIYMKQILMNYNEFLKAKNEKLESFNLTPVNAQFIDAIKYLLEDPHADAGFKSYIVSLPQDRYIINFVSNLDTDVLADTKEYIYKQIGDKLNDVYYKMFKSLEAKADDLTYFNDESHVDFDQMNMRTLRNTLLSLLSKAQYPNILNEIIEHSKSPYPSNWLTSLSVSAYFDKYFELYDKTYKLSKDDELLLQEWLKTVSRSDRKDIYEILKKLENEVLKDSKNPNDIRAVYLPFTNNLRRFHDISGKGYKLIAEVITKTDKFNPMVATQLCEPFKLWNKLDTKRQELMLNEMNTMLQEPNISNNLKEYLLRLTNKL

Cytochrome P450 2C19 = Cytochrome P450 2C19 (Homo sapiens, UniProt P33261); assay: Cytochrome panel assay with activity outcomes. Panel member name: p450-cyp2c19 Compounds with AC50 equal or less than 10 uM are considered active; type: functional; conditions: read-out: AC50
Chain of Cytochrome P450 2C19 (P33261 whole entry): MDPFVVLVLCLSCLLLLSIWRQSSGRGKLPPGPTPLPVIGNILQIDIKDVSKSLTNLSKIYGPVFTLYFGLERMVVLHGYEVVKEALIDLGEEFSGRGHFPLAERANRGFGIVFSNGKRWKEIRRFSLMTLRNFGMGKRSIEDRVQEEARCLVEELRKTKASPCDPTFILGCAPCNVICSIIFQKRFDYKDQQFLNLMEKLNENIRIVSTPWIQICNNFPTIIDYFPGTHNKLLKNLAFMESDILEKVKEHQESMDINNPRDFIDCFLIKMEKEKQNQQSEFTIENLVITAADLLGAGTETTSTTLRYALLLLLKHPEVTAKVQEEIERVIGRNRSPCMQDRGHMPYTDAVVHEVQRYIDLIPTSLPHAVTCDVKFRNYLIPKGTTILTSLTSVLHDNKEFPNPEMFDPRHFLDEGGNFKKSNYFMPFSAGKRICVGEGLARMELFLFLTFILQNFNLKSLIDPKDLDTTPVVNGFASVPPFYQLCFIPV

Genome polyprotein = Genome polyprotein (dengue virus type 2, UniProt P29990); assay: Dengue-2 NS5 methyltransferase inhibitors, primary screen, biochemical, confirmation dose response (AID 588689); type: functional
Chain of Genome polyprotein (P29990 2492-3391 limits assumed): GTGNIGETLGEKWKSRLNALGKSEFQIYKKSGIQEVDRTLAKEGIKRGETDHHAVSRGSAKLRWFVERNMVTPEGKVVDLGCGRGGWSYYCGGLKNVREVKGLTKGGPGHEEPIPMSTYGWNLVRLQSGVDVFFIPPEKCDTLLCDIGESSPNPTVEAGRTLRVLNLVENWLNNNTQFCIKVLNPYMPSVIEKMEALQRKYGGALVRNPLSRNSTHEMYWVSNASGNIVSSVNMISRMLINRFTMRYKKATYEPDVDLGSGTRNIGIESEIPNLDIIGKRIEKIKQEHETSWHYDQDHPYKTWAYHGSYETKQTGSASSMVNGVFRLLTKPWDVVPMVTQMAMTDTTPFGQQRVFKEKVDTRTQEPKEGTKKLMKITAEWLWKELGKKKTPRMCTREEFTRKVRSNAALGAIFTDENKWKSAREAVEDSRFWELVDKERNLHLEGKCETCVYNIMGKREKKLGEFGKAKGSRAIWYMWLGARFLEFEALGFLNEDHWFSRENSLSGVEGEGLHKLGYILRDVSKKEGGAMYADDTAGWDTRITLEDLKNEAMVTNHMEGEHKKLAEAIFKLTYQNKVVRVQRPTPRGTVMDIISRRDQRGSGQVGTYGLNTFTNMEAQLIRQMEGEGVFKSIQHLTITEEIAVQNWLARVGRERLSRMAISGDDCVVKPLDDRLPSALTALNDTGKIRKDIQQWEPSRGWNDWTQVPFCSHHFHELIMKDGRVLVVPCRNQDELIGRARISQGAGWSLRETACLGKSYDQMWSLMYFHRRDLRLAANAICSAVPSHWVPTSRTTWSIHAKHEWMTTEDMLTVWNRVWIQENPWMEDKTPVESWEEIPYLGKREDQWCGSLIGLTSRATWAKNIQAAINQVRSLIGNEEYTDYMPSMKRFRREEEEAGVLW

[2] = target: T4, Rac GTPase-activating protein 1 (Homo sapiens, UniProt Q9H0H5); assay: MgcRacGAP GTPase-activating activity inhibitors, confirmation, biochemical, ADP Hunter fluorescence, primary and confirmatory (AID 624330); type: functional
T4 sequence (Q9H0H5 whole entry): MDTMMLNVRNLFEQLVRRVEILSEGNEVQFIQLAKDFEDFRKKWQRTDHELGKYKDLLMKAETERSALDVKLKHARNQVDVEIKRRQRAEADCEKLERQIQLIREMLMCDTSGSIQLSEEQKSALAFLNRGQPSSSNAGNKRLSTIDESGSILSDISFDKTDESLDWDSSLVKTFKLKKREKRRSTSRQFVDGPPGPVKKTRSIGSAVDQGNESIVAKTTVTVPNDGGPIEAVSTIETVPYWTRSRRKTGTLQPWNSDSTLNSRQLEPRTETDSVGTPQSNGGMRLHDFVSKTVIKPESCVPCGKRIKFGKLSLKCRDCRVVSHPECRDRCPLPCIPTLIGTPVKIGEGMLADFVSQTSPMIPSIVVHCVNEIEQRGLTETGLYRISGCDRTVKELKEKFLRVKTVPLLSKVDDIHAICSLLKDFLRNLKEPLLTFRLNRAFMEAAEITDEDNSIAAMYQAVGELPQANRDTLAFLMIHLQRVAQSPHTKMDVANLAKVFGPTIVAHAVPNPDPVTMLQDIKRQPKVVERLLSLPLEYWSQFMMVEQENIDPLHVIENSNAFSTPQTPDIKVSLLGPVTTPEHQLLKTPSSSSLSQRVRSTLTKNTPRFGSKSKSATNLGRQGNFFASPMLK

Cytochrome P450 2C9 [3] = target: T1, Cytochrome P450 2C9; remark: listed apart in the source

T1 sequence (P11712 whole entry): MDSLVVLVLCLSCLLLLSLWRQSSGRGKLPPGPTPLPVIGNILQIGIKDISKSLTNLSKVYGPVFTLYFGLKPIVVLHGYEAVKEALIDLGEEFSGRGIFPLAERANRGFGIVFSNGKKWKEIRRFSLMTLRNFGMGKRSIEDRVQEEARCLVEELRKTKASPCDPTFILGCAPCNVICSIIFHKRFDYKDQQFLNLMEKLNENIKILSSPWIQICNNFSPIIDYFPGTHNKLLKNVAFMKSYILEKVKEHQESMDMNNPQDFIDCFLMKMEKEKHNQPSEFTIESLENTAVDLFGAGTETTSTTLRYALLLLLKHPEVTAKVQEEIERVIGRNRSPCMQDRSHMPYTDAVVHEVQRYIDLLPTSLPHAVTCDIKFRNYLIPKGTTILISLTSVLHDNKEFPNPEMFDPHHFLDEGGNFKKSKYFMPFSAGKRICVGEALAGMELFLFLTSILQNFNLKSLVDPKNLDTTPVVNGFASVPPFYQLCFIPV

SMILES | AC50 (Cytochrome P450 2C9 [1]) | AC50 (Cytochrome P450 1A2) | IC50 (Aminopeptidase N) | other results
CN1[C@@H]2CC[C@H]1CC(O[C@@H](c1ccccc1)c1ccccc1N)C2 (stereo not given in full) | inconclusive | 15.8 µM (inconclusive) |  | AC50 (Cytochrome P450 2D6): 25.1 µM (inconclusive); AC50 (Cytochrome P450 3A4): 12.6 µM (inconclusive)
COc1ccc2cc(C#N)c(SCC(=O)N3CCCC3)nc2c1 |  |  | 55.7 µM (active) | 
Cc1cc(C)cc(OCC(=O)Nc2ccc3c4c(cccc24)CC3)c1 | inconclusive | 2.51 µM (inconclusive) |  | AC50 (Cytochrome P450 2C19): 11.2 µM (inconclusive)
O=C(Nn1c(-c2ccccc2)nc2ccccc2c1=O)c1cccs1 |  |  | 51.1 µM (active) | 
CCOC(=O)COc1ccc(Br)cc1/C=C\c1nc(O)nc(O)c1[N+](=O)[O-] |  |  | 36.5 µM (active) | 
Cc1c(NC(=S)N/N=C/c2ccc(O)cc2)c(=O)n(-c2ccccc2)n1C | inconclusive |  |  | IC50 [2]: 55.6 µM (active)

Further lines, with some results ahead:

AC50 (Cytochrome P450 2C9 [1]) | AC50 (Cytochrome P450 1A2) | IC50 (Aminopeptidase N) | SMILES | other results
inconclusive |  |  | COC(=O)c1ccccc1NC(=O)c1ccc(COc2ccc(C)c(C)c2)o1 | AC50 (Cytochrome P450 3A4): 1.41 µM (inconclusive)
inconclusive |  |  | CC(C)(C)NC(=O)C(Cc1ccccc1)NS(=O)(=O)c1ccc2c(c1)CCC(=O)N2 (stereo not given) | AC50 (Cytochrome P450 2D6): 12.6 µM (inconclusive)
inconclusive | 12.6 µM (inconclusive) |  | Cc1nc(S(=O)(=O)c2cccc(Cl)c2)nc2c1CCC2 | 
 |  | 30.9 µM (active) | Cc1ccc(S(=O)(=O)NN2C(=O)/C(=C/c3cccs3)SC2=S)cc1 | IC50 (Genome polyprotein): 35.3 µM (active)
inconclusive | 2.51 µM (inconclusive) |  | CCOc1ccc(NC(=O)CCNS(=O)(=O)c2ccc3c(c2)c(=O)n(C)c(=O)n3C)cc1 | 
inconclusive |  |  | O=C(N/N=C1\CCCc2ccccc21)c1ccc([N+](=O)[O-])cc1Cl | 
inconclusive |  |  | N=C(N)NC(=O)Cc1c(Cl)cccc1Cl [GUANFACINE] | AC50 (Cytochrome P450 2C9 [3]): 31.6 µM (inconclusive)
